Source: article PMC2845980 (Bioorganic & medicinal chemistry, 2010)
Read-outs that look alike come from different tables or passages of the source.

Assays:
tgDHFR = tgDHFR (Toxoplasma gondii, UniProt Q07422); assay: Spectrophotometric DHFR inhibition assay, T. gondii enzyme; type: biochemical; details: IC50 rlDHFR / IC50 tgDHFR
Solubility = type: physicochemical; details: qualitative statement
[1] = first study, i.p. 50 mg/kg/day, mouse
[2] = second study, i.p. 50 mg/kg/day, mouse

Chain of tgDHFR (Q07422 whole entry): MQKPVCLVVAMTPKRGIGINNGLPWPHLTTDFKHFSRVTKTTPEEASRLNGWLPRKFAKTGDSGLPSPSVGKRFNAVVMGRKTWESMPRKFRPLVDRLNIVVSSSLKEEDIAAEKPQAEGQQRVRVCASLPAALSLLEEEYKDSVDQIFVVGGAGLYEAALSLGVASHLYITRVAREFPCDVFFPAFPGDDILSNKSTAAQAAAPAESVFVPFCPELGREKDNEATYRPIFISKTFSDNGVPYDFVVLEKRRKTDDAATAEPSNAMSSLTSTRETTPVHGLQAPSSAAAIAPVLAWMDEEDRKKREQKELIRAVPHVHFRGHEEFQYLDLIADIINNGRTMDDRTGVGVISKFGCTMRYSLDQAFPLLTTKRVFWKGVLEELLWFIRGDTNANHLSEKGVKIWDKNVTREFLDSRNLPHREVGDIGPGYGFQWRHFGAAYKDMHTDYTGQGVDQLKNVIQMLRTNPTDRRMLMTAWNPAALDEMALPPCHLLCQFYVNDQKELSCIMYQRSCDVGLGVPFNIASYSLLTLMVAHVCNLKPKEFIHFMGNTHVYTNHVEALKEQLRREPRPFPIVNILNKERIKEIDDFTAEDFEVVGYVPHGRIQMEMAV

| SMILES | selectivity ratio rl/tg (tgDHFR) | Mean counts of T. gondii per 1000x field in peritoneal harvest (T. gondii; [1]) [counts per 1000x field] | Median counts of T. gondii per 1000x field in peritoneal harvest (T. gondii; [1]) [counts per 1000x field] | gross toxicity in treated mice (T. gondii; mouse, in vivo, ip, 50 mg/kg/day) | reduction of the median counts per 1000x field versus control (T. gondii; second study, i.p. 50 mg/kg/day) | Mean counts of T. gondii per 1000x field in peritoneal harvest (T. gondii; [2]) [counts per 1000x field] | Median counts of T. gondii per 1000x field in peritoneal harvest (T. gondii; [2]) [counts per 1000x field] | solubility properties (Solubility) |
| --- | --- | --- | --- | --- | --- | --- | --- | --- |
| Cc1c(Sc2ccc3ccccc3c2)[nH]c2nc(N)nc(N)c12 [Compound 90, 2,4-Diamino-5-methyl-6-(2-naphthylthio)pyrrolo[2,3-d]pyrimidine] | 5 |  |  |  |  |  |  |  |
| Cc1cccc(C)c1Sc1[nH]c2nc(N)nc(N)c2c1C [Compound 91, 2,4-Diamino-5-methyl-6-(2′,6′-dimethylphenylthio)pyrrolo[2,3-d]pyrimidine] |  | 12.5 | 7.0 | no gross evidence of toxicity | more than two-fold | 8.9 | 5.0 | poor solubility properties |
| Cc1cccc(C)c1Sc1[nH]c2nc(N)nc(N)c2c1C.Cl [Compound 95, 2,4-Diamino-5-methyl-6-(2′,6′-dimethylphenylthio)pyrrolo[2,3-d]pyrimidine hydrochloride salt] |  |  |  |  |  | 2.4 | 1.0 | more soluble |
